According to patent US9801901B2, “Alginate oligomers for use in overcoming multidrug resistance in bacteria” (priority 2009, dated 2017):
In brackets after ≈: the same amount, converted by molar mass. Read-outs that look alike come from different tables or passages of the source. Marks after values point to notes of the source that are not given here.

Assays:
[1] = system: Pseudomonas aeruginosa, Klebsiella pneumoniae and Acinetobacter baumannii strains; experiment: MIC assay of Example 1, summary over the strains; type: cell-based; conditions: Example 1, Tables 1 and 2, all strains
[2] = system: Pseudomonas aeruginosa (R22, PSA, V1); experiment: MIC-assay, Mueller-Hinton broth with G-block alginate, 384-well, OD600
[3] = system: V23 1322 Burkholderia cepacia; experiment: MIC assay, CAMHB with alginate oligomer, no visible growth; type: cell-based
[4] = system: MDR strains of Pseudomonas aeruginosa, Klebsiella pneumoniae, Burkholderia cepacia, Acinetobacter lwoffii, Acinetobacter baumannii and E. coli; experiment: MIC assay of Example 2, summary over the strains of Tables 4, 5 and 6; type: cell-based; conditions: Example 2, Tables 4, 5 and 6
[5] = system: Klebsiella pneumoniae KP05 506 from India (V3); experiment: MIC assay, CAMHB with alginate oligomer, no visible growth; type: cell-based; conditions: for MIC: V3 KP05 506
[6] = system: V19 non MDR Acinetobacter baumannii; experiment: MIC assay, CAMHB with M-block alginate oligomer, no visible growth; type: cell-based; conditions: Table 7, V19 non MDR Acin. baum
Source text: (§1) The study described in Example 1 was repeated with the following strains of Acinetobacter baumannii, antibiotics and M-block alginate oligomer in place of OligoG CF-5/20 as detailed in Table 7. The M-block oligomer is 100% M with a DPn of 15 to 18,

[7] = system: Staphylococcus aureus (MRSA) U50; experiment: MIC-assay, Mueller-Hinton broth with G-block alginate, 384-well, OD600 (Table 12); type: cell-based; conditions: MRSA 1040s, U50 MDR
Source text: Minimum inhibitory concentration (MICs) of different antibiotics for strains of Streptococcus oralis and Staphylococcus aureus (MRSA) displaying MDR phenotypes in the presence of varying concentrations of OligoCF-5/20 (0-10%). (MIC values are expressed in μg ml^−1).

[8] = system: Acinetobacter baumannii (MDR ACB, Libya, V4); experiment: MIC-assay, Mueller-Hinton broth with G-block alginate, 384-well, OD600
[9] = system: MDR Pseudomonas strains; experiment: MIC assay of Example 1, summary over the MDR Pseudomonas strains; type: cell-based, Pseudomonas aeruginosa
[10] = system: V10 (Egypt) Acinetobacter lwoffii; experiment: MIC assay, CAMHB with alginate oligomer, no visible growth; type: cell-based; conditions: Table 5, V10 MDR Acin. lwoff
[11] = system: Pseudomonas aeruginosa CFA 24-1, clinical mucoid strain (R80); experiment: as above; type: cell-based; conditions: R80
[12] = system: Acinetobacter baumannii MDR ACB from Libya (V4); experiment: as above; type: cell-based
Source text: The study described in Example 1 was repeated with the following strains of bacteria and antibiotics as detailed in Tables 4, 5 and 6.
as §1

CC[C@H]1OC(=O)[C@H](C)[C@@H](O[C@H]2C[C@@](C)(OC)[C@@H](O)[C@H](C)O2)[C@H](C)[C@@H](O[C@@H]2O[C@H](C)C[C@H](N(C)C)[C@H]2O)[C@](C)(O)C[C@@H](C)CN(C)[C@H](C)[C@@H](O)[C@]1(C)O [Azithromycin]
change of MIC with increasing amounts of OligoG CF-5/20 [1]: decreasing MICs | MIC ([2]; Table 8, G-block (OligoCF-5/20) 2%): 32 µg/mL (≈ 42.7 µM) | MIC ([2]; Table 8, G-block (OligoCF-5/20) 6%): 32 µg/mL (≈ 42.7 µM) | MIC ([2]; Table 8, G-block (OligoCF-5/20) 10%): 8 µg/mL (≈ 10.7 µM) | MIC ([3]; Burkholderia cepacia, Table 5, V23 MDR Burk cep, OligoCF-5/20 0G, read-out: MIC): 128 µg/mL (≈ 171 µM) | MIC ([3]; Burkholderia cepacia, Table 6, V23, Experiment 1 (18-03-10), OligoCF-5/20 0G, read-out: MIC): 64 µg/mL (≈ 85.4 µM) | MIC ([3]; Burkholderia cepacia, Table 6, V23, Experiment 2 (18-03-10), OligoCF-5/20 0G, read-out: MIC): 32 µg/mL (≈ 42.7 µM) | MIC ([3]; Burkholderia cepacia, Table 6, V23, Experiment 3 (19-03-10), OligoCF-5/20 0G, read-out: MIC): 16 µg/mL (≈ 21.4 µM) | MIC ([3]; Table 5, V23 MDR Burk cep, OligoCF-5/20 +2% G): 64^† μg/ml | MIC ([3]; Table 5, V23 MDR Burk cep, OligoCF-5/20 +6% G): 16^† μg/ml | MIC ([3]; Table 5, V23 MDR Burk cep, OligoCF-5/20 +10% G): 4 µg/mL (≈ 5.34 µM) | MIC ([3]; Table 6, V23, Experiment 1 (18-03-10), OligoCF-5/20 +2% G): 64 µg/mL (≈ 85.4 µM) | MIC ([3]; Table 6, V23, Experiment 1 (18-03-10), OligoCF-5/20 +6% G): 64 µg/mL (≈ 85.4 µM) | MIC ([3]; Table 6, V23, Experiment 1 (18-03-10), OligoCF-5/20 +10% G): 32^† μg/ml | MIC ([3]; Table 6, V23, Experiment 2 (18-03-10), OligoCF-5/20 +2% G): 32 µg/mL (≈ 42.7 µM) | MIC ([3]; Table 6, V23, Experiment 2 (18-03-10), OligoCF-5/20 +6% G): 16^† μg/ml | MIC ([3]; Table 6, V23, Experiment 2 (18-03-10), OligoCF-5/20 +10% G): 16^† μg/ml | MIC ([3]; Table 6, V23, Experiment 3 (19-03-10), OligoCF-5/20 +2% G): 16 µg/mL (≈ 21.4 µM) | MIC ([3]; Table 6, V23, Experiment 3 (19-03-10), OligoCF-5/20 +6% G): 16 µg/mL (≈ 21.4 µM) | MIC ([3]; Table 6, V23, Experiment 3 (19-03-10), OligoCF-5/20 +10% G): 16 µg/mL (≈ 21.4 µM) | change of MIC with increasing amounts of OligoG CF-5/20 [4]: decreasing MICs | effectiveness in conjunction with alginate oligomers ([5]; Example 1, KP05 506): more effective | MIC ([5]; Klebsiella pneumoniae, Table 1, OligoCF-5/20 0G, read-out: MIC): 32 µg/mL (≈ 42.7 µM) | MIC ([5]; Klebsiella pneumoniae, Table 1, OligoCF-5/20 +2% G, read-out: MIC): 16 µg/mL (≈ 21.4 µM) | MIC ([5]; Klebsiella pneumoniae, Table 1, OligoCF-5/20 +6% G, read-out: MIC): 16 µg/mL (≈ 21.4 µM) | MIC ([5]; Klebsiella pneumoniae, Table 1, OligoCF-5/20 +10% G, read-out: MIC): 8 µg/mL (≈ 10.7 µM) | MIC ([5]; Table 2, OligoCF-5/20 0G): 32^† | MIC ([5]; Table 2, OligoCF-5/20 +2% G): 16^† | MIC ([5]; Table 2, OligoCF-5/20 +6% G): 16^† | MIC ([5]; Table 2, OligoCF-5/20 +10% G): 8^† | MIC ([6]; M-block oligomer 0M): 32 µg/mL (≈ 42.7 µM) | MIC ([6]; M-block oligomer +2% M): 16 µg/mL (≈ 21.4 µM) | MIC ([6]; M-block oligomer +6% M): 16 µg/mL (≈ 21.4 µM) | MIC ([6]; M-block oligomer +10% M): 16 µg/mL (≈ 21.4 µM) | MIC ([7]; G-block (OligoCF-5/20) 0%): 512 µg/mL (≈ 684 µM) | MIC ([7]; G-block (OligoCF-5/20) 2%): 256 µg/mL (≈ 342 µM) | MIC ([7]; G-block (OligoCF-5/20) 6%): 256 µg/mL (≈ 342 µM) | MIC ([7]; G-block (OligoCF-5/20) 10%): 256 µg/mL (≈ 342 µM) | MIC ([8]; Table 9, G-block (OligoCF-5/20) 0%): 16 µg/mL (≈ 21.4 µM) | MIC ([8]; Table 9, G-block (OligoCF-5/20) 2%): 2 µg/mL (≈ 2.67 µM) | MIC ([8]; Table 9, G-block (OligoCF-5/20) 6%): < 1 µg/mL | MIC ([8]; Table 9, G-block (OligoCF-5/20) 10%): < 1 µg/mL | effectiveness when used in combination with the alginate oligomers [9]: more effective | MIC ([10]; Acinetobacter lwoffii, OligoCF-5/20 0G, read-out: MIC): < 0.25 µg/mL | MIC ([10]; OligoCF-5/20 +2% G): <0.25 µg/mL | MIC ([10]; OligoCF-5/20 +6% G): <0.25 µg/mL | MIC ([10]; OligoCF-5/20 +10% G): <0.25 µg/mL | MIC ([11]; Pseudomonas aeruginosa, Table 1, OligoCF-5/20 0G, read-out: MIC): 256 µg/mL (≈ 342 µM) | MIC ([11]; Pseudomonas aeruginosa, Table 1, OligoCF-5/20 +2% G, read-out: MIC): 128 µg/mL (≈ 171 µM) | MIC ([11]; Pseudomonas aeruginosa, Table 1, OligoCF-5/20 +6% G, read-out: MIC): 64 µg/mL (≈ 85.4 µM) | MIC ([11]; Pseudomonas aeruginosa, Table 1, OligoCF-5/20 +10% G, read-out: MIC): 8 µg/mL (≈ 10.7 µM) | MIC ([11]; Table 2, OligoCF-5/20 0G): 256^† | MIC ([11]; Table 2, OligoCF-5/20 +2% G): 128^† | MIC ([11]; Table 2, OligoCF-5/20 +6% G): 64^† | MIC ([11]; Table 2, OligoCF-5/20 +10% G): 8^† | MIC ([12]; Acinetobacter baumannii, Table 1, V4 ACB (Libya), OligoCF-5/20 0G, read-out: MIC): 8 µg/mL (≈ 10.7 µM) | MIC ([12]; Acinetobacter baumannii, Table 1, V4 ACB (Libya), OligoCF-5/20 +2% G, read-out: MIC): 2 µg/mL (≈ 2.67 µM) | MIC ([12]; Acinetobacter baumannii, Table 1, V4 ACB (Libya), OligoCF-5/20 +6% G, read-out: MIC): < 0.25 µg/mL | MIC ([12]; Acinetobacter baumannii, Table 1, V4 ACB (Libya), OligoCF-5/20 +10% G, read-out: MIC): < 0.25 µg/mL | MIC ([12]; Acinetobacter baumannii, Table 7, V4 MDR Acin baum (Libya), M-block oligomer 0M, read-out: MIC): 8 µg/mL (≈ 10.7 µM) | MIC ([12]; Acinetobacter baumannii, Table 7, V4 MDR Acin baum (Libya), M-block oligomer +2% M, read-out: MIC): 8 µg/mL (≈ 10.7 µM) | MIC ([12]; Acinetobacter baumannii, Table 7, V4 MDR Acin baum (Libya), M-block oligomer +6% M, read-out: MIC): 8 µg/mL (≈ 10.7 µM) | MIC ([12]; Acinetobacter baumannii, Table 7, V4 MDR Acin baum (Libya), M-block oligomer +10% M, read-out: MIC): 2 µg/mL (≈ 2.67 µM) | effect in combination with alginate oligomers ([12]; Example 1, Acinetobacter baumannii isolate): more positive effect | MIC ([12]; Table 2, V4 ACB (Libya), OligoCF-5/20 0G): 8^† | MIC ([12]; Table 2, V4 ACB (Libya), OligoCF-5/20 +2% G): 2^† | MIC ([12]; Table 2, V4 ACB (Libya), OligoCF-5/20 +6% G): <0.25^† | MIC ([12]; Table 2, V4 ACB (Libya), OligoCF-5/20 +10% G): <0.25†
